In patent US20080269174A1 (priority 2005, published 2008):
“And” between values parts separate entries of the source, which are not always exact repeats. Equal values may be shown once. Read-outs that look alike come from different tables or passages of the source.

Legend:
Test in all cases: microbe, parasite or virus in culture
Assay type in all cases: cell-based
Ustilago nuda = test system: Ustilago nuda
Fusarium graminearum = details: for % activity observed: 48 hrs
Monographella nivalis = details: for % activity observed: 72 hrs
Pyrenophora graminea = details: for % activity observed: 72 hrs
Gaeumannomyces graminis = details: for % activity observed: 72 hrs
Rhizoctonia solani = details: 72 h, read-out: % activity observed
Pythium ultimum = test system: Pythium ultimum
[1] = Ustilago nuda, 48 h, read-out: % activity observed
[2] = Fusarium graminearum, 48 h, read-out: % activity observed, 10 ppm applied alone
[3] = Globisporangium ultimum, 48 h, read-out: % activity observed
[4] = Monographella nivalis, 72 h, read-out: % activity observed
[5] = Pyrenophora graminea, 72 h, read-out: % activity observed
[6] = Gaeumannomyces graminis, 72 h, read-out: % activity observed

Question: How did the “% activity observed” value (Ustilago nuda; 48 hrs) turn out when `COCC(=O)N(c1c(C)cccc1C)[C@H](C)C(=O)OC` [Mefenoxam] was run?
Answer: The value was 0% and 2% and 5% and 8%.

Question: And the “% activity observed” value (Fusarium graminearum; 0.014 ppm applied alone)?
Answer: The value was 6%.

Question: And the “% activity observed” value (Fusarium graminearum; 0.041 ppm applied alone)?
Answer: The value was 0%.

Question: What about the “% activity observed” value (Fusarium graminearum; 0.123 ppm applied alone) of the same compound?
Answer: The value was 0%.

Question: And the “% activity observed” value (Fusarium graminearum; 0.370 ppm applied alone)?
Answer: Its value is 0%.

Question: And the “% activity observed” value (Fusarium graminearum; 1.111 ppm applied alone)?
Answer: The value was 0%.

Question: And the “% activity observed” value (Fusarium graminearum; 3.333 ppm applied alone)?
Answer: The value was 2%.

Question: What about the “% activity observed” value (Fusarium graminearum; 10.000 ppm applied alone) of the same compound?
Answer: Its value is 1%.

Question: What about the “% activity observed” value (Monographella nivalis) of the same compound?
Answer: Its value is 0%.

Question: And the “% activity observed” value (Pyrenophora graminea)?
Answer: The value was 0% and 5%.

Question: What about the “% activity observed” value (Gaeumannomyces graminis) of the same compound?
Answer: The value was 0% and 4% and 3%.

Question: With `CC(C)(C)C(O)(CCc1ccc(Cl)cc1)Cn1cncn1` (stereo not shown) [Tebuconazole] as the compound, how does the inhibition at 0.014 ppm (Ustilago nuda; [1]) read?
Answer: Its inhibition at 0.014 ppm is 0%.

Question: What about the inhibition at 0.041 ppm (Ustilago nuda; [1]) of the same compound?
Answer: Its inhibition at 0.041 ppm is 0%.

Question: What about the inhibition at 10 ppm (Ustilago nuda; [1]) of the same compound?
Answer: Its inhibition at 10 ppm is 26%.

Question: And the inhibition at 3.333 ppm (Rhizoctonia solani)?
Answer: Its inhibition at 3.333 ppm is 96%.

Question: What about the inhibition at 10 ppm (Rhizoctonia solani) of the same compound?
Answer: The inhibition at 10 ppm was 100%.

Question: And the “% activity observed” value (Fusarium graminearum; 0.014 ppm applied alone)?
Answer: The value was 3% and 1%.

Question: What about the “% activity observed” value (Fusarium graminearum; 0.041 ppm applied alone) of the same compound?
Answer: Its value is 11% and 5% and 9%.

Question: And the “% activity observed” value (Fusarium graminearum; 0.370 ppm applied alone)?
Answer: Its value is 34% and 39%.

Question: And the “% activity observed” value (Fusarium graminearum; 1.111 ppm applied alone)?
Answer: Its value is 62% and 55%.

Question: What about the “% activity observed” value (Fusarium graminearum; 3.333 ppm applied alone) of the same compound?
Answer: Its value is 88%.

Question: And the “% activity observed” value (Fusarium graminearum; 10.000 ppm applied alone)?
Answer: Its value is 95% and 97%.

Question: And the inhibition at 0.0137 ppm (Fusarium graminearum; Fusarium graminearum, 48 h, read-out: % activity observed, 0.0137 ppm applied alone)?
Answer: Its inhibition at 0.0137 ppm is 0%.

Question: What about the inhibition at 0.0412 ppm (Fusarium graminearum; Fusarium graminearum, 48 h, read-out: % activity observed, 0.0412 ppm applied alone) of the same compound?
Answer: The inhibition at 0.0412 ppm was 7%.

Question: What about the inhibition at 0.1235 ppm (Fusarium graminearum; Fusarium graminearum, 48 h, read-out: % activity observed, 0.1235 ppm applied alone) of the same compound?
Answer: The inhibition at 0.1235 ppm was 16%.

Question: What about the inhibition at 0.37 ppm (Fusarium graminearum; Fusarium graminearum, 48 h, read-out: % activity observed, 0.370 ppm applied alone) of the same compound?
Answer: Its inhibition at 0.37 ppm is 37%.

Question: What about the inhibition at 0.3704 ppm (Fusarium graminearum; Fusarium graminearum, 48 h, read-out: % activity observed, 0.3704 ppm applied alone) of the same compound?
Answer: Its inhibition at 0.3704 ppm is 33%.

Question: And the inhibition at 1.111 ppm (Fusarium graminearum; Fusarium graminearum, 48 h, read-out: % activity observed, 1.111 ppm applied alone)?
Answer: The inhibition at 1.111 ppm was 50%.

Question: What about the inhibition at 1.1111 ppm (Fusarium graminearum; Fusarium graminearum, 48 h, read-out: % activity observed, 1.1111 ppm applied alone) of the same compound?
Answer: Its inhibition at 1.1111 ppm is 66%.

Question: What about the inhibition at 3.333 ppm (Fusarium graminearum; Fusarium graminearum, 48 h, read-out: % activity observed, 3.333 ppm applied alone) of the same compound?
Answer: Its inhibition at 3.333 ppm is 98%.

Question: And the inhibition at 3.3333 ppm (Fusarium graminearum; Fusarium graminearum, 48 h, read-out: % activity observed, 3.3333 ppm applied alone)?
Answer: Its inhibition at 3.3333 ppm is 94%.

Question: And the inhibition at 10 ppm (Fusarium graminearum; [2])?
Answer: Its inhibition at 10 ppm is 94%.

Question: What about the inhibition at 10 ppm (Fusarium graminearum; Fusarium graminearum, 48 h, read-out: % activity observed, 10.000 ppm applied alone) of the same compound?
Answer: Its inhibition at 10 ppm is 100%.

Question: What about the “% activity observed” value (Pythium ultimum; 48 hrs) of the same compound?
Answer: Its value is 2% and 4% and 0%.

Question: What about the inhibition at 0.123 ppm (Pythium ultimum; [3]) of the same compound?
Answer: The inhibition at 0.123 ppm was 1%.

Question: And the inhibition at 10 ppm (Pythium ultimum; [3])?
Answer: Its inhibition at 10 ppm is 22%.

Question: What about the “% activity observed” value (Monographella nivalis) of the same compound?
Answer: Its value is 6%.

Question: What about the inhibition at 0.014 ppm (Monographella nivalis; [4]) of the same compound?
Answer: Its inhibition at 0.014 ppm is 9%.

Question: And the inhibition at 0.041 ppm (Monographella nivalis; [4])?
Answer: The inhibition at 0.041 ppm was 3%.

Question: And the inhibition at 1.111 ppm (Monographella nivalis; [4])?
Answer: Its inhibition at 1.111 ppm is 0%.

Question: And the inhibition at 3.333 ppm (Monographella nivalis; [4])?
Answer: Its inhibition at 3.333 ppm is 62%.

Question: And the inhibition at 10 ppm (Monographella nivalis; [4])?
Answer: The inhibition at 10 ppm was 94%.

Question: What about the “% activity observed” value (Pyrenophora graminea) of the same compound?
Answer: Its value is 54% and 89% and 74%.

Question: And the inhibition at 0.041 ppm (Pyrenophora graminea; [5])?
Answer: Its inhibition at 0.041 ppm is 17%.

Question: What about the inhibition at 0.123 ppm (Pyrenophora graminea; [5]) of the same compound?
Answer: Its inhibition at 0.123 ppm is 48%.

Question: What about the inhibition at 0.37 ppm (Pyrenophora graminea; [5]) of the same compound?
Answer: The inhibition at 0.37 ppm was 57%.

Question: What about the inhibition at 1.111 ppm (Pyrenophora graminea; [5]) of the same compound?
Answer: The inhibition at 1.111 ppm was 77%.

Question: And the inhibition at 3.333 ppm (Pyrenophora graminea; [5])?
Answer: The inhibition at 3.333 ppm was 87%.

Question: And the inhibition at 10 ppm (Pyrenophora graminea; [5])?
Answer: Its inhibition at 10 ppm is 94%.

Question: And the “% activity observed” value (Gaeumannomyces graminis)?
Answer: The value was 100%.

Question: And the inhibition at 0.041 ppm (Gaeumannomyces graminis; [6])?
Answer: The inhibition at 0.041 ppm was 16%.

Question: And the inhibition at 0.123 ppm (Gaeumannomyces graminis; [6])?
Answer: The inhibition at 0.123 ppm was 64%.

Question: What about the inhibition at 0.37 ppm (Gaeumannomyces graminis; [6]) of the same compound?
Answer: The inhibition at 0.37 ppm was 97%.

Question: What about the inhibition at 1.111 ppm (Gaeumannomyces graminis; [6]) of the same compound?
Answer: Its inhibition at 1.111 ppm is 98%.

Question: What about the inhibition at 3.333 ppm (Gaeumannomyces graminis; [6]) of the same compound?
Answer: Its inhibition at 3.333 ppm is 98%.

Question: And the inhibition at 10 ppm (Gaeumannomyces graminis; [6])?
Answer: The inhibition at 10 ppm was 96%.

Question: With `CC1COC(Cn2cncn2)(c2ccc(Oc3ccc(Cl)cc3)cc2Cl)O1` (stereo not shown) [Difenconazole, Difenoconazole] as the compound, how does the inhibition at 0.014 ppm (Ustilago nuda; [1]) read?
Answer: Its inhibition at 0.014 ppm is 4%.

Question: And the inhibition at 0.041 ppm (Ustilago nuda; [1])?
Answer: The inhibition at 0.041 ppm was 0%.

Question: And the inhibition at 0.123 ppm (Ustilago nuda; [1])?
Answer: The inhibition at 0.123 ppm was 0%.

Question: What about the inhibition at 0.37 ppm (Ustilago nuda; [1]) of the same compound?
Answer: Its inhibition at 0.37 ppm is 0%.

Question: And the inhibition at 1.111 ppm (Ustilago nuda; [1])?
Answer: The inhibition at 1.111 ppm was 0%.

Question: And the inhibition at 3.333 ppm (Ustilago nuda; [1])?
Answer: Its inhibition at 3.333 ppm is 0%.

Question: What about the inhibition at 10 ppm (Ustilago nuda; [1]) of the same compound?
Answer: Its inhibition at 10 ppm is 60%.

Question: And the inhibition at 0.014 ppm (Rhizoctonia solani)?
Answer: Its inhibition at 0.014 ppm is 5%.

Question: What about the inhibition at 0.041 ppm (Rhizoctonia solani) of the same compound?
Answer: Its inhibition at 0.041 ppm is 0%.

Question: And the inhibition at 0.123 ppm (Rhizoctonia solani)?
Answer: The inhibition at 0.123 ppm was 27%.

Question: What about the inhibition at 0.37 ppm (Rhizoctonia solani) of the same compound?
Answer: Its inhibition at 0.37 ppm is 30%.

Question: What about the inhibition at 1.111 ppm (Rhizoctonia solani) of the same compound?
Answer: The inhibition at 1.111 ppm was 84%.

Question: What about the inhibition at 3.333 ppm (Rhizoctonia solani) of the same compound?
Answer: The inhibition at 3.333 ppm was 88%.

Question: What about the inhibition at 10 ppm (Rhizoctonia solani) of the same compound?
Answer: The inhibition at 10 ppm was 84%.

Question: What about the inhibition at 0.014 ppm (Fusarium graminearum; Fusarium graminearum, 48 h, read-out: % activity observed, 0.014 ppm applied alone) of the same compound?
Answer: Its inhibition at 0.014 ppm is 8%.

Question: And the inhibition at 0.041 ppm (Fusarium graminearum; Fusarium graminearum, 48 h, read-out: % activity observed, 0.041 ppm applied alone)?
Answer: The inhibition at 0.041 ppm was 6%.

Question: What about the inhibition at 0.123 ppm (Fusarium graminearum; Fusarium graminearum, 48 h, read-out: % activity observed, 0.123 ppm applied alone) of the same compound?
Answer: Its inhibition at 0.123 ppm is 14%.

Question: What about the inhibition at 0.37037 ppm (Fusarium graminearum; Fusarium graminearum, 48 h, read-out: % activity observed, 0.3703704 ppm applied alone) of the same compound?
Answer: The inhibition at 0.37037 ppm was 16%.

Question: What about the inhibition at 1.11111 ppm (Fusarium graminearum; Fusarium graminearum, 48 h, read-out: % activity observed, 1.1111111 ppm applied alone) of the same compound?
Answer: The inhibition at 1.11111 ppm was 34%.

Question: And the inhibition at 3.33333 ppm (Fusarium graminearum; Fusarium graminearum, 48 h, read-out: % activity observed, 3.3333333 ppm applied alone)?
Answer: Its inhibition at 3.33333 ppm is 73%.

Question: What about the inhibition at 10 ppm (Fusarium graminearum; [2]) of the same compound?
Answer: The inhibition at 10 ppm was 92%.

Question: And the inhibition at 0.014 ppm (Pythium ultimum; [3])?
Answer: The inhibition at 0.014 ppm was 5%.

Question: And the inhibition at 0.041 ppm (Pythium ultimum; [3])?
Answer: The inhibition at 0.041 ppm was 0%.

Question: And the inhibition at 0.123 ppm (Pythium ultimum; [3])?
Answer: Its inhibition at 0.123 ppm is 0%.

Question: What about the inhibition at 0.37 ppm (Pythium ultimum; [3]) of the same compound?
Answer: The inhibition at 0.37 ppm was 0%.

Question: What about the inhibition at 1.111 ppm (Pythium ultimum; [3]) of the same compound?
Answer: Its inhibition at 1.111 ppm is 0%.

Question: What about the inhibition at 3.333 ppm (Pythium ultimum; [3]) of the same compound?
Answer: The inhibition at 3.333 ppm was 0%.

Question: What about the inhibition at 10 ppm (Pythium ultimum; [3]) of the same compound?
Answer: Its inhibition at 10 ppm is 7%.

Question: What about the inhibition at 0.014 ppm (Pyrenophora graminea; [5]) of the same compound?
Answer: The inhibition at 0.014 ppm was 20%.

Question: And the inhibition at 0.041 ppm (Pyrenophora graminea; [5])?
Answer: The inhibition at 0.041 ppm was 29%.

Question: What about the inhibition at 0.123 ppm (Pyrenophora graminea; [5]) of the same compound?
Answer: The inhibition at 0.123 ppm was 41%.

Question: What about the inhibition at 0.37 ppm (Pyrenophora graminea; [5]) of the same compound?
Answer: The inhibition at 0.37 ppm was 70%.

Question: And the inhibition at 1.111 ppm (Pyrenophora graminea; [5])?
Answer: Its inhibition at 1.111 ppm is 86%.

Question: And the inhibition at 3.333 ppm (Pyrenophora graminea; [5])?
Answer: The inhibition at 3.333 ppm was 87%.

Question: What about the inhibition at 10 ppm (Pyrenophora graminea; [5]) of the same compound?
Answer: Its inhibition at 10 ppm is 86%.
